From US11673890B2, “N1-pyrazolospiroketone acetyl-CoA carboxylase inhibitors” (Pfizer Inc., priority 2010, dated 2023)

What was measured:
[1] = molecular target: T1, recombinant human ACC1 (rhACC1) (Homo sapiens, UniProt Q13085, DEL44-44); assay: recombinant hACC1 Transcreener assay (ADP detection FP); assay type: biochemical; settings: recombinant hACC1 Transcreener assay, 50 μM ATP, minimum of n=3; read-out: hACC1
T1 construct: infected with recombinant baculovirus containing full length human ACC1 cDNA; made in house; host or cells: SF9 insect cells (baculovirus)
Protocol: For example direct inhibition of ACC activity, for the compound of Formula (1) was determined using preparations of recombinant human ACC1 (rhACC1) and recombinant human ACC2 (rhACC2).
[1] Preparation of rhACC1. Two liters of SF9 cells, infected with recombinant baculovirus containing full length human ACC1 cDNA, were suspended in ice-cold lysis buffer (25 mM Tris, pH 7.5; 150 mM NaCl; 10% glycerol; 5 mM imidazole (EMD Bioscience; Gibbstown, N.J.); 2 mM TCEP (BioVectra; Charlottetown, Canada); Benzonase nuclease (10000 U/100 g cell paste; Novagen; Madison, Wis.); EDTA-free protease inhibitor cocktail (1 tab/50 mL; Roche Diagnostics; Mannheim, Germany). Cells were lysed by 3 cycles of freeze-thaw and centrifuged at 40,000×g for 40 minutes (4° C.). Supernatant was directly loaded onto a HisTrap FF crude column (GE Healthcare; Piscataway, N.J.) and eluted with an imidazole gradient up to 0.5 M over 20 column volumes (CV). ACC1-containing fractions were pooled and diluted 1:5 with 25 mM Tris, pH 7.5, 2 mM TCEP, 10% glycerol and direct loaded onto a CaptoQ (GE Healthcare) column and eluted with an NaCl gradient up to 1 M over 20 CV's. Phosphate groups were removed from purified ACC1 by incubation with lambda phosphatase (100 U/10 μM target protein; New England Biolabs; Beverly, Mass.) for 14 hours at 4° C.; okadaic acid was added (1 μM final concentration; Roche Diagnostics) to inhibit the phosphatase. Purified ACC1 was exchanged into 25 mM Tris, pH 7.5, 2 mM TCEP, 10% glycerol, 0.5 M NaCl by 6 hour dialysis at 4° C. Aliquots were prepared and frozen at −80° C.
[2] […] The final conditions for the assay were 50 mM HEPES, pH 7.2, 10 mM MgCl2, 7.5 mM tripotassium citrate, 2 mM DTT, 0.1 mg/mL BSA, 30 μM acetyl-CoA, 50 μM ATP, and 10 mM KHCO3. Typically, a 10 μl reaction was run for 120 min at 25° C., and 10 μl of Transcreener stop and detect buffer was added and the combination incubated at room temp for an additional 1 hour.
All of the examples in both assays were run with a minimum of n=3.

[2] = molecular target: T2, recombinant human ACC2 (rhACC2) (Homo sapiens, UniProt O00763, V2141I); assay: recombinant hACC2 Transcreener assay (ADP detection FP); assay type: biochemical; settings: 50 μM ATP, minimum of n=3
T2 construct: a full length Cytomax clone of ACC2 was purchased from Cambridge Bioscience Limited; made in house; host or cells: CHO cells (tetracycline-inducible, pcDNA5 FRT TO-TOPO)
Protocol: For example direct inhibition of ACC activity, for the compound of Formula (1) was determined using preparations of recombinant human ACC1 (rhACC1) and recombinant human ACC2 (rhACC2). Representative sequences of the recombinant human ACC1 and ACC2 that can be used in the assay are provided in FIG. 1 (SEQ ID NO. 1) and FIG. 2 (SEQ. ID NO. 2), respectively.
[3] Preparation of rhACC2. Human ACC2 inhibition was measured using purified recombinant human ACC2 (hrACC2). Briefly, a full length Cytomax clone of ACC2 was purchased from Cambridge Bioscience Limited and was sequenced and subcloned into PCDNA5 FRT TO-TOPO (Invitrogen, Carlsbad, Calif.). The ACC2 was expressed in CHO cells by tetracycline induction and harvested in 5 liters of DMEM/F12 with glutamine, biotin, hygromycin and blasticidin with 1 μg/mL tetracycline (Invitrogen, Carlsbad, Calif.). The conditioned medium containing ACC2 was then applied to a Softlink Soft Release Avidin column (Promega, Madison, Wis.) and eluted with 5 mM biotin. 4 mgs of ACC2 were eluted at a concentration of 0.05 mg/mL (determined by A280) with an estimated purity of 95% ([…]). The purified ACC2 was dialyzed in 50 mM Tris, 200 mM NaCl, 4 mM DTT, 2 mM EDTA, and 5% glycerol. The pooled protein was frozen and stored at −80° C., with no loss of activity upon thawing. For measurement of ACC2 activity and assessment of ACC2 inhibition, test compounds were dissolved in DMSO and added to the rhACC2 enzyme as a 5× stock with a final DMSO concentration of 1%.
[4] Measurement of human ACC2 inhibition. hACC2 was assayed in a Costar #3676 (Costar, Cambridge, Mass.) 384-well plate using the Transcreener ADP detection FP assay kit (Bellbrook Labs, Madison, Wis.) using the manufacturer's recommended conditions for a 50 uM ATP reaction. The final conditions for the assay were 50 mM HEPES, pH 7.2, 5 mM MgCl2, 5 mM tripotassium citrate, 2 mM DTT, 0.1 mg/mL BSA, 30 μM acetyl-CoA, 50 μM ATP, and 8 mM KHCO3. Typically, a 10 μl reaction was run for 50 min at 25° C., and 10 μl of Transcreener stop and detect buffer was added and the combination incubated at room temp for an additional 1 hour. The data was acquired on an Envision Fluorescence reader (Perkinelmer) using a 620 excitation Cy5 FP general dual mirror, 620 excitation Cy5 FP filter, 688 emission (S) and a 688 (P) emission filter.
The results using the recombinant hACC1 and recombinant hACC2 Transcreener assays described above are summarized in the table below for the Compounds of Formula (I) exemplified in the Examples above. All of the examples in both assays were run with a minimum of n=3.

T2 sequence (O00763 whole entry V2141I): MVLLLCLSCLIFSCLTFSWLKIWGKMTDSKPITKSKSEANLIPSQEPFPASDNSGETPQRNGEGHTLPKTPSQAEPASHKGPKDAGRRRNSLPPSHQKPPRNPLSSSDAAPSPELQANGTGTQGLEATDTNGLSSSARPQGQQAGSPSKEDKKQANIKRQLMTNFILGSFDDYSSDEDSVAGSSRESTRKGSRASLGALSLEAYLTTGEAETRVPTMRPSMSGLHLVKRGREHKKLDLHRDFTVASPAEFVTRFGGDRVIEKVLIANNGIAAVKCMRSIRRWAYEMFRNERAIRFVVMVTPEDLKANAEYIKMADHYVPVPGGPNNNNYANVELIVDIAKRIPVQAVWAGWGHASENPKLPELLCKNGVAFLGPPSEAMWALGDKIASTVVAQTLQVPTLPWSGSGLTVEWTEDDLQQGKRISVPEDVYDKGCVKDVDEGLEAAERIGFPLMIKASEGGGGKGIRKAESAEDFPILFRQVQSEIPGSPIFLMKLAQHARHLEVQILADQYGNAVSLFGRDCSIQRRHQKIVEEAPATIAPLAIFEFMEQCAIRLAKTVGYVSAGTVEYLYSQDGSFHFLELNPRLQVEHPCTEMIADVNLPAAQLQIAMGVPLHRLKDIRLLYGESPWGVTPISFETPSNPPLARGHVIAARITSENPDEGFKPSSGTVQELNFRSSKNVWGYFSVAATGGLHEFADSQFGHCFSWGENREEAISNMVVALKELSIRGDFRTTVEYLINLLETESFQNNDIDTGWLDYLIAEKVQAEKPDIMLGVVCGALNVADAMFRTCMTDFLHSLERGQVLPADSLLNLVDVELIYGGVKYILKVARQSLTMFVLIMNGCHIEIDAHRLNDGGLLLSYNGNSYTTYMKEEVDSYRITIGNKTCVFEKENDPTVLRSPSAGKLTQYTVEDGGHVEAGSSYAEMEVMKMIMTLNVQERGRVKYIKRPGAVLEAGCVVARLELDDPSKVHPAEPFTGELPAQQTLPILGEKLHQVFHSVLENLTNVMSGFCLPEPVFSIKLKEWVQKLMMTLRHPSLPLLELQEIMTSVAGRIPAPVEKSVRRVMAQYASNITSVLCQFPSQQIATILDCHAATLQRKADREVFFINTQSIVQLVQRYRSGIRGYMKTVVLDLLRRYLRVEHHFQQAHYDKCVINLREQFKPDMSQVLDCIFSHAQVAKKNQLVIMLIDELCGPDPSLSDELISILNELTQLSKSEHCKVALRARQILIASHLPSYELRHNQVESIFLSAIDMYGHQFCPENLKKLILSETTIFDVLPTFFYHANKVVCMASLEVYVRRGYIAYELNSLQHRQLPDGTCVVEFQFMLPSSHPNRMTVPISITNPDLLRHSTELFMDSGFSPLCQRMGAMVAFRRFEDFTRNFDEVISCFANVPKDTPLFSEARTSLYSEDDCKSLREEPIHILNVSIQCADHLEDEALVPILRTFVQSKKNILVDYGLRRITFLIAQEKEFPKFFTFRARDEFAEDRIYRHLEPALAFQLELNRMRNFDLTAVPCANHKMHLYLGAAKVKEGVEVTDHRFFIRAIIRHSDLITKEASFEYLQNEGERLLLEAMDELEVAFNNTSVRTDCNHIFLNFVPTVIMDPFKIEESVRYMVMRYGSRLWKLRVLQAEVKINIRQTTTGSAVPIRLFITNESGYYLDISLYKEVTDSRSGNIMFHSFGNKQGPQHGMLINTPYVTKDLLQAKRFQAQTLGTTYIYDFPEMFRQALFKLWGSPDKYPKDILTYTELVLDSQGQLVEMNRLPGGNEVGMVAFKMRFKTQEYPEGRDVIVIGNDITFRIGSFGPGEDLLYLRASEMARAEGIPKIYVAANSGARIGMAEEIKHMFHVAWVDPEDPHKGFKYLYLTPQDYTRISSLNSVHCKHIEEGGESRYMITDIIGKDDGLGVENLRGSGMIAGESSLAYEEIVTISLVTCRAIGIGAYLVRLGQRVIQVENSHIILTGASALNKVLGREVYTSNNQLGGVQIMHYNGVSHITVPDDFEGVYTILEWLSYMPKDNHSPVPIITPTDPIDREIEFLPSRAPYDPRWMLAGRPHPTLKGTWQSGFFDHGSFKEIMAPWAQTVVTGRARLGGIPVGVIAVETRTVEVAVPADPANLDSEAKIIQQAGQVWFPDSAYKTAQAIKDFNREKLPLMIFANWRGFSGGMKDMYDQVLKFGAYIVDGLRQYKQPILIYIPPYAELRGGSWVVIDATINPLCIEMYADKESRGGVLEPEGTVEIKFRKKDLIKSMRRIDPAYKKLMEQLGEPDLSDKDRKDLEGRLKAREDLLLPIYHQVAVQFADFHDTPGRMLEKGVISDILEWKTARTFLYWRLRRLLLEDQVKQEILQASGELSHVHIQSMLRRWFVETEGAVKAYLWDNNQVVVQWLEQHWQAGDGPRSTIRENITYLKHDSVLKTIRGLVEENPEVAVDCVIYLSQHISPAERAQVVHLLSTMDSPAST

Row | IC50 [1] [nM] | IC50 [2] [nM] | Molecule
1 | 116 | 53 | CNc1nc(-c2cccc(C(=O)O)c2)ccc1C(=O)N1CCC2(CC1)CC(=O)c1c(cnn1C(C)(C)C)C2 [Example 4, 3-{5-[(1-tert-butyl-7-oxo-1,4,6,7-tetrahydro-1′H-spiro[indazole-5,4′-piperidin]-1′-yl)carbonyl]-6-(methylamino)pyridin-2-yl}benzoic acid]
2 | 6.7 | 5.35 | CC(C)n1ncc2c1C(=O)CC1(CCN(C(=O)c3cc4c(-c5cccc(C(=O)O)c5)ccnc4[nH]3)CC1)C2 [Example 28, 3-{2-[(1-isopropyl-7-oxo-1,4,6,7-tetrahydro-1′H-spiro[indazole-5,4′-piperidin]-1′-yl)carbonyl]-1H-pyrrolo[2,3-b]pyridin-4-yl}benzoic acid]
3 | 44.4 | 29.3 | CC(C)n1ncc2c1C(=O)CC1(CCN(C(=O)c3cc4c(-c5cccc(C(=O)O)c5)ncnc4[nH]3)CC1)C2 [Example 36, 3-{6-[(1-isopropyl-7-oxo-1,4,6,7-tetrahydro-1′H-spiro[indazole-5,4′-piperidin]-1′-yl)carbonyl]-7H-pyrrolo[2,3-d]pyrimidin-4-yl}benzoic acid]
4 | 23.1 | 54.8 | COc1ccc(-c2cccc3[nH]c(C(=O)N4CCC5(CC4)CC(=O)c4c(cnn4C(C)C)C5)cc23)cc1CC(=O)O [Example 31, (5-{2-[(1-isopropyl-7-oxo-1,4,6,7-tetrahydro-1′H-spiro[indazole-5,4′-piperidin]-1′-yl)carbonyl]-1H-indol-4-yl}-2-methoxyphenyl)acetic acid]
5 | 20.4 | 7.49 | CC(C)n1ncc2c1C(=O)CC1(CCN(C(=O)c3cc(-c4ccc(C(=O)O)cc4)c4cn[nH]c4c3)CC1)C2 [Example 26, 4-{6-[(1-isopropyl-7-oxo-1,4,6,7-tetrahydro-1′H-spiro[indazole-5,4′-piperidin]-1′-yl)carbonyl]-1H-indazol-4-yl}benzoic acid]
6 | 16.3 | 8.7 | CC(C)n1ncc2c1C(=O)CC1(CCN(C(=O)c3cc(-c4ccc(C(=O)O)cc4)nc(N(C)C)c3)CC1)C2 [Example 33, 4-{6-(dimethylamino)-4-[(1-isopropyl-7-oxo-1,4,6,7-tetrahydro-1′H-spiro[indazole-5,4′-piperidin]-1′-yl)carbonyl]pyridin-2-yl}benzoic acid]
7 | 156 | 175 | CNc1nc(-c2ccc(C(=O)O)cc2)ccc1C(=O)N1CCC2(CC1)CC(=O)c1c(cnn1C(C)C)C2 [Example 8, 4-{5-[(1-isopropyl-7-oxo-1,4,6,7-tetrahydro-1′H-spiro[indazole-5,4′-piperidin]-1′-yl)carbonyl]-6-(methylamino)pyridin-2-yl}benzoic acid]
8 | 180 | 268 | COc1cc(C(=O)N2CCC3(CC2)CC(=O)c2c(cnn2C(C)(C)C)C3)cc(-c2cccc(C(=O)O)c2)n1 [Example 11, 3-{4-[(1-tert-butyl-7-oxo-1,4,6,7-tetrahydro-1′H-spiro[indazole-5,4′-piperidin]-1′-yl)carbonyl]-6-methoxypyridin-2-yl}benzoic acid]
9 | 176 | 184 | CC(C)(C)n1ncc2c1C(=O)CC1(CCN(C(=O)c3ccc(OCc4ccc(C(=O)O)cc4)cc3)CC1)C2 [Example 1, 4-((4-(1-Tert-butyl-7-oxo-1,4,6,7-tetrahydrospiro[indazole-5,4′-piperidine]-1′-ylcarbonyl)phenoxy)methyl)benzoic acid]
10 | 6.11 | 7.88 | CC(C)n1ncc2c1C(=O)CC1(CCN(C(=O)c3cc4c(-c5cccc(C(=O)O)c5)cccc4[nH]3)CC1)C2 [Example 15, 3-{2-[(1-isopropyl-7-oxo-1,4,6,7-tetrahydro-1′H-spiro[indazole-5,4′-piperidin]-1′-yl)carbonyl]-1H-indol-4-yl}benzoic acid]
11 | 32.5 | 25.7 | CC(C)n1ncc2c1C(=O)CC1(CCN(C(=O)c3nc4cc(-c5cccc(C(=O)O)c5)ccc4[nH]3)CC1)C2 [Example 47, 3-{2-[(1-isopropyl-7-oxo-1,4,6,7-tetrahydro-1′H-spiro[indazole-5,4′-piperidin]-1′-yl)carbonyl]-1H-benzimidazol-5-yl}benzoic acid]
12 | 600 | 202 | CC(C)Nc1nc(-c2ccc(C(=O)O)cc2)ccc1C(=O)N1CCC2(CC1)CC(=O)c1c(cnn1C(C)C)C2 [Example 25, 4-{6-(isopropylamino)-5-[(1-isopropyl-7-oxo-1,4,6,7-tetrahydro-1′H-spiro[indazole-5,4′-piperidin]-1′-yl)carbonyl]pyridin-2-yl}benzoic acid]
13 | 113 | 74.2 | CC(C)n1ncc2c1C(=O)CC1(CCN(C(=O)c3ccc(-c4cccc(C(=O)O)c4)cc3)CC1)C2 [Example 7, 4′-[(1-isopropyl-7-oxo-1,4,6,7-tetrahydro-1′H-spiro[indazole-5,4′-piperidin]-1′-yl)carbonyl]biphenyl-3-carboxylic acid]
14 | 54.7 | 24.7 | CC(C)(C)n1ncc2c1C(=O)CC1(CCN(C(=O)c3ccc(-c4cccc(-c5nnn[nH]5)c4)cc3)CC1)C2 [Example 49, 1-tert-butyl-1′-{[3′-(1H-tetrazol-5-yl)biphenyl-4-yl]carbonyl}-1,4-dihydrospiro[indazole-5,4′-piperidin]-7(6H)-one]
15 | 13.7 | 6.16 | CC(C)n1ncc2c1C(=O)CC1(CCN(C(=O)c3cc4c(-c5ccc(C(=O)O)cc5)ccnc4[nH]3)CC1)C2 [Example 29, 4-{2-[(1-isopropyl-7-oxo-1,4,6,7-tetrahydro-1′H-spiro[indazole-5,4′-piperidin]-1′-yl)carbonyl]-1H-pyrrolo[2,3-b]pyridin-4-yl}benzoic acid]

Row | Molecule | IC50 [1] [nM] | IC50 [2] [nM]
16 | 4-{6-(ethylamino)-5-[(1-isopropyl-7-oxo-1,4,6,7-tetrahydro-1′H-spiro[indazole-5,4′-piperidin]-1′-yl)carbonyl]pyridin-2-yl}benzoic acid [Example 14] | 139 | 76.1
17 | 4-{5-[(1-tert-butyl-7-oxo-1,4,6,7-tetrahydro-1′H-spiro[indazole-5,4′-piperidin]-1′-yl)carbonyl]-6-(ethylamino)pyridin-2-yl}benzoic acid [Example 13] | 221 | 143
